Like-named read-outs stand apart in the source and are kept apart here.
Columns and labels:
recombinant human TDP1 = recombinant human TDP1 (Homo sapiens, UniProt Q9NUW8); test: TDP1 gel-based inhibition assay; assay type: biochemical
HCT-116 cells = test: MTT cytotoxicity assay, HCT-116; assay type: cell-based, human; details: read-out: GI50 ± SD (μM) HCT-116
MCF-7 cells = test: MTT cytotoxicity assay, MCF-7; assay type: cell-based, human; details: read-out: GI50 ± SD (μM) MCF-7
recombinant TOP1 = target: T1, recombinant TOP1 (Homo sapiens, UniProt P11387); test: TOP1-mediated DNA cleavage assay; assay type: biochemical; details: TOP1 cleavage inhibitory activity, semiquantitative relative to CPT at 1 μM
T1 sequence (P11387 1-765): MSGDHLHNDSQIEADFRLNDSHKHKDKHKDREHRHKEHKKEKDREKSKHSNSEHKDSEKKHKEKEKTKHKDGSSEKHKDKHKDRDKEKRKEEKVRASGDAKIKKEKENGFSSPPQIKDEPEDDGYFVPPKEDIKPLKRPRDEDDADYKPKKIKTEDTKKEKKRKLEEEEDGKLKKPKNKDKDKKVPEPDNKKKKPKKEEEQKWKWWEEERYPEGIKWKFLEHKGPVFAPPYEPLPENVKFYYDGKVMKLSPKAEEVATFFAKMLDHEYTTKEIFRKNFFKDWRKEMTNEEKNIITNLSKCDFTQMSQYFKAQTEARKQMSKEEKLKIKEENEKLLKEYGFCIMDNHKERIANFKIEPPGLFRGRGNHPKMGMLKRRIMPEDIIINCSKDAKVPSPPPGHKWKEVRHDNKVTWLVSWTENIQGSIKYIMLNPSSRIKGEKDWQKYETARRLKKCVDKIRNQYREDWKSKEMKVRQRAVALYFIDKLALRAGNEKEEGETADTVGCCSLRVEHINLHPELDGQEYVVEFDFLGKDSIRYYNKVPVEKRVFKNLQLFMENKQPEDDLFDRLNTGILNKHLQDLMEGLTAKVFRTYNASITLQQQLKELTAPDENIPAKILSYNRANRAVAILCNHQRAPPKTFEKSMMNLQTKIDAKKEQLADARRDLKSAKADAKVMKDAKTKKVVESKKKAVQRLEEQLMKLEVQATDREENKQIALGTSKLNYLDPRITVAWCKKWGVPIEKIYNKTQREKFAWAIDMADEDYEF

recombinant human TDP1, sequence (Q9NUW8 whole entry): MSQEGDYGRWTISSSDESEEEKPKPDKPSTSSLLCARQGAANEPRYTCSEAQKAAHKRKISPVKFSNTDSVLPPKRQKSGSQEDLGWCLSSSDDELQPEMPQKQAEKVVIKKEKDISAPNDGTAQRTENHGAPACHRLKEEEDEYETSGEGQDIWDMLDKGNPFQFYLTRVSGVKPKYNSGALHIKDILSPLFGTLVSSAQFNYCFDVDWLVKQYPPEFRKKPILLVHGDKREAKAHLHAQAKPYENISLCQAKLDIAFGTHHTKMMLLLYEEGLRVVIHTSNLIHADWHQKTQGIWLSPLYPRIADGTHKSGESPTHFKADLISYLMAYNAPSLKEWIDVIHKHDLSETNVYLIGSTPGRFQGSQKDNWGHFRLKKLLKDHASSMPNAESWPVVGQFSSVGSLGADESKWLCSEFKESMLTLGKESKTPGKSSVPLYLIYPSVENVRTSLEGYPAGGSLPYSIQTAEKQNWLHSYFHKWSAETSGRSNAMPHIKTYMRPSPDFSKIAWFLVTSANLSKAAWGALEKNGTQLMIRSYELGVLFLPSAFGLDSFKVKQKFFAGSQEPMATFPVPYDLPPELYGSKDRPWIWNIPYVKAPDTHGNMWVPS

Compound | IC50 (recombinant human TDP1; read-out: IC50 (μM) for TDP1, gel-based assay, Table 1) [µM] | GI50 (HCT-116 cells; MTT assay, 72 h, Table 1) [µM] | GI50 (MCF-7 cells; MTT assay, 72 h, Table 1) [µM] | TOP1 Inhibition (recombinant TOP1; Table 1) | IC50 (recombinant human TDP1) [µM] | GI50 (HCT-116 cells; Homo sapiens, HCT-116, 72 h) [µM] | GI50 (MCF-7 cells; Homo sapiens, MCF7, 72 h) [µM] | TOP1 Inhibition (recombinant TOP1; Table 2) | IC50 (recombinant human TDP1; read-out: IC50 (μM) for TDP1, gel-based assay, Table 2) [µM]
COc1cc2c(=O)n(C)c3c4cc5c(cc4ccc3c2cc1OC)OCO5 [Compound 4, oxynitidine, reference compound] | > 111 | 75 ± 4.4 | > 100 | – | – | – | – | – | –
COc1cc2c(=O)n(C)c3c4cc5c(cc4c(OC(C)=O)cc3c2cc1OC)OCO5 [Compound 10, 2,3-Dimethoxy-12-methyl-13-oxo-12,13-dihydro-[1,3]dioxolo[4’,5’:4,5]benzo[1,2-c]phenanthridin-6-yl acetate] | – | – | – | + (+, between 20% and 50% activity) | > 111 | > 100 | > 100 | – | –
COc1cc2c(=O)n(C)c3c4cc5c(cc4c(O)cc3c2cc1OC)OCO5 [Compound 11, 6-Hydroxy-2,3-dimethoxy-12-methyl-[1,3]dioxolo[4’,5’:4,5]benzo[1,2-c]phenanthridin-13(12H)-one] | – | – | – | 0 | > 111 | > 100 | > 100 | – | –
CNCCOc1cc2c3cc(OC)c(OC)cc3c(=O)n(C)c2c2cc3c(cc12)OCO3 [Compound 12, 2,3-Dimethoxy-12-methyl-6-(2-(methylamino)ethoxy)-[1,3]dioxolo[4’,5’:4,5]benzo[1,2-c]phenanthridin-13(12H)-one] | – | – | – | +++ (+++, between 75% and 95% activity) | > 111 | 1.3 ± 0.12 | 2.2 ± 0.06 | – | –
CNCCCOc1cc2c3cc(OC)c(OC)cc3c(=O)n(C)c2c2cc3c(cc12)OCO3 [Compound 13, 2,3-Dimethoxy-12-methyl-6-(3-(methylamino)propoxy)-[1,3]dioxolo[4’,5’:4,5]benzo[1,2-c]phenanthridin-13(12H)-one] | – | – | – | + (+, between 20% and 50% activity) | > 111 | 12 ± 1.2 | 33 ± 5 | – | –
COc1cc2c(=O)n(C)c3c4cc5c(cc4c(OCCN(C)C)cc3c2cc1OC)OCO5 [Compound 14, 6-(2-(Dimethylamino)ethoxy)-2,3-dimethoxy-12-methyl-[1,3]dioxolo[4’,5’:4,5]benzo[1,2-c]phenanthridin-13(12H)-one] | – | – | – | + (+, between 20% and 50% activity) | 37 to 111 | 4.6 ± 0.41 | 8.5 ± 0.91 | – | –
COc1cc2c(=O)n(C)c3c4cc5c(cc4c(OCCCN(C)C)cc3c2cc1OC)OCO5 [Compound 15, 6-(3-(Dimethylamino)propoxy)-2,3-dimethoxy-12-methyl-[1,3]dioxolo[4’,5’:4,5]benzo[1,2-c]phenanthridin-13(12H)-one] | – | – | – | + (+, between 20% and 50% activity) | > 111 | 36 ± 1.3 | 54 ± 4.9 | – | –
COc1cc2c(=O)n(C)c3c4cc5c(cc4c(OCCN4CCCCC4)cc3c2cc1OC)OCO5 [Compound 16, 2,3-Dimethoxy-12-methyl-6-(2-(piperidin-1-yl)ethoxy)-[1,3]dioxolo[4’,5’:4,5]benzo[1,2-c]phenanthridin-13(12H)-one] | – | – | – | + (+, between 20% and 50% activity) | > 111 | > 100 | 22 ± 7.7 | – | –
COc1cc2c(=O)n(C)c3c4cc5c(cc4c(OCCCN4CCCCC4)cc3c2cc1OC)OCO5 [Compound 17, 2,3-Dimethoxy-12-methyl-6-(3-(piperidin-1-yl)propoxy)-[1,3]dioxolo[4’,5’:4,5]benzo[1,2-c]phenanthridin-13(12H)-one] | – | – | – | ++ (++, between 50% and 75% activity) | > 111 | 1.8 ± 0.32 | 6.6 ± 1.3 | – | –
COc1cc2c(=O)n(C)c3c4cc5c(cc4c(OCCN4CCN(C)CC4)cc3c2cc1OC)OCO5 [Compound 18, 2,3-Dimethoxy-12-methyl-6-(2-(4-methylpiperazin-1-yl)ethoxy)-[1,3]dioxolo[4’,5’:4,5]benzo[1,2-c]phenanthridin-13(12H)-one] | – | – | – | + (+, between 20% and 50% activity) | 37 to 111 | 7.7 ± 0.56 | 7 ± 1.3 | – | –
COc1cc2c(=O)n(C)c3c4cc5c(cc4c(OCCCN4CCN(C)CC4)cc3c2cc1OC)OCO5 [Compound 19, 2,3-Dimethoxy-12-methyl-6-(3-(4-methylpiperazin-1-yl)propoxy)-[1,3]dioxolo[4’,5’:4,5]benzo[1,2-c]phenanthridin-13(12H)-one] | – | – | – | ++ (++, between 50% and 75% activity) | > 111 | 1.5 ± 0.21 | 0.93 ± 0.07 | – | –
COc1cc2c(=O)n(C)c3c4cc5c(cc4c(OCCn4ccnc4)cc3c2cc1OC)OCO5 [Compound 20, 6-(2-(1H-Imidazol-1-yl)ethoxy)-2,3-dimethoxy-12-methyl-[1,3]dioxolo[4’,5’:4,5]benzo[1,2-c]phenanthridin-13(12H)-one] | – | – | – | ++ (++, between 50% and 75% activity) | > 111 | 2.9 ± 0.45 | 2.7 ± 0.23 | – | –
COc1cc2c(=O)n(C)c3c4cc5c(cc4c(OCCCn4ccnc4)cc3c2cc1OC)OCO5 [Compound 21, 6-(3-(1H-Imidazol-1-yl)propoxy)-2,3-dimethoxy-12-methyl-[1,3]dioxolo[4’,5’:4,5]benzo[1,2-c]phenanthridin-13(12H)-one] | – | – | – | 0 | > 111 | 16 ± 3.6 | 64 ± 3.9 | – | –
COc1cc2c(=O)n(C)c3c4cc5c(cc4c(OCCNCCN(C)C)cc3c2cc1OC)OCO5 [Compound 22, 6-(2-((2-(Dimethylamino)ethyl)amino)ethoxy)-2,3-dimethoxy-12-methyl-[1,3]dioxolo[4’,5’:4,5]benzo[1,2-c]phenanthridin-13(12H)-one] | – | – | – | + (+, between 20% and 50% activity) | > 111 | 9.1 ± 1 | 9.1 ± 2.4 | – | –
CCOC(=O)COc1cc2c3cc(OC)c(OC)cc3c(=O)n(C)c2c2cc3c(cc12)OCO3 [Compound 23, Ethyl 2-((2,3-dimethoxy-12-methyl-13-oxo-12,13-dihydro-[1,3]dioxolo[4’,5’:4,5]benzo[1,2-c]phenanthridin-6-yl)oxy)acetate] | – | – | – | 0 | > 111 | > 100 | 91 ± 5.9 | – | –
COc1cc2c(=O)n(C)c3c4cc5c(cc4cc(O)c3c2cc1OC)OCO5 [Compound 33, 5-Hydroxy-2,3-dimethoxy-12-methyl-[1,3]dioxolo[4’,5’:4,5]benzo[1,2-c]phenanthridin-13(12H)-one] | – | – | – | – | > 111 | > 100 | > 100 | + (+, between 20% and 50% activity) | –
COc1cc2c(=O)n(C)c3c4cc5c(cc4cc(OCCN(C)C)c3c2cc1OC)OCO5 [Compound 34, 5-(2-(Dimethylamino)ethoxy)-2,3-dimethoxy-12-methyl-[1,3]dioxolo[4’,5’:4,5]benzo[1,2-c]phenanthridin-13(12H)-one] | – | – | – | – | 37 to 111 | 11 ± 0.48 | 27 ± 1.5 | + (+, between 20% and 50% activity) | –
CCN(CC)CCOc1cc2cc3c(cc2c2c1c1cc(OC)c(OC)cc1c(=O)n2C)OCO3 [Compound 36, 5-(2-(Diethylamino)ethoxy)-2,3-dimethoxy-12-methyl-[1,3]dioxolo[4’,5’:4,5]benzo[1,2-c]phenanthridin-13(12H)-one] | – | – | – | – | – | 2.1 ± 0.23 | 1.6 ± 0.17 | 0 | > 111
CCN(CC)CCCOc1cc2cc3c(cc2c2c1c1cc(OC)c(OC)cc1c(=O)n2C)OCO3 [Compound 37, 5-(3-(Diethylamino)propoxy)-2,3-dimethoxy-12-methyl-[1,3]dioxolo[4’,5’:4,5]benzo[1,2-c]phenanthridin-13(12H)-one] | – | – | – | – | 15 ± 2.4 | 2.4 ± 0.11 | 2 ± 0.1 | + (+, between 20% and 50% activity) | –
COc1cc2c(=O)n(C)c3c4cc5c(cc4cc(OCCCN4CCCC4)c3c2cc1OC)OCO5 [Compound 39, 2,3-Dimethoxy-12-methyl-5-(3-(pyrrolidin-1-yl)propoxy)-[1,3]dioxolo[4’,5’:4,5]benzo[1,2-c]phenanthridin-13(12H)-one] | – | – | – | – | 15 ± 2.8 | 1.3 ± 0.21 | 1.4 ± 0.13 | + (+, between 20% and 50% activity) | –
COc1cc2c(=O)n(C)c3c4cc5c(cc4cc(OCCN4CCOCC4)c3c2cc1OC)OCO5 [Compound 40, 2,3-Dimethoxy-12-methyl-5-(2-morpholinoethoxy)-[1,3]dioxolo[4’,5’:4,5]benzo[1,2-c]phenanthridin-13(12H)-one] | – | – | – | – | > 111 | 15 ± 1.08 | 18 ± 0.67 | ++ (++, between 50% and 75% activity) | –
